Assay results reported in patent US10556994B2, “Strictly segmented thermoplastic elastomers as biodegradable biomaterials” (SyMO-Chem B.V., priority 2014, dated 2020).
Where two headings read alike, the source gives them in different places.

What was measured:
[1] = system: 3T3 mouse fibroblasts
[2] = Solubility in PBS of hard block degradation products; assay type: physicochemical; details: for solubility: aqueous buffer
Text: The variety of the biodegradation products of the [AB]n materials of this invention is limited, where this is due to the simple and defined molecular structures of the [AB]n materials with only one type of soft block A and only one type of hard block B for a particular [AB]n material. […] Degradation products from the hard block are lower molecular weight molecules such as the molecules shown in Examples 25 and 26 (not: molecules 26E, 26F, 26G).

[3] = system: 3T3 mouse fibroblasts; experiment: MTT cytotoxicity assay; details: cells treated with medium exposed to the material, relative to untreated medium

| Compound | solubility [2] [µg/mL] | also measured |
| --- | --- | --- |
| poly(hexyl carbonate-random-co-ε-caprolactone) bisurea [Example 32] |  | cell viability [1]: 60-116% |
| O=C(O)CCCCCNC(=O)NCCCCNC(=O)NCCCCCC(=O)O [Example 26B] |  | solubility in PBS [2]: > 1000 µg/mL |
| NCCCCCNC(=O)CCCCCN [Example 25C, 6-amino-N-(5-aminopentyl)hexanamide] | > 5000 |  |
| Triton X-100 |  | cell viability [3]: 0% |
| NCCCCNC(=O)CCCCC(=O)NCCCCN [Example 25D, N^1,N^6-bis(4-aminobutyl)adipamide] | > 5000 |  |
| NCCCCCCNC(=O)NCCCCCCN [Example 25E, 1,3-bis-(6-aminohexyl)urea] | > 5000 |  |
